Data reported in patent US9216181B2 (Southwest Research Institute, priority 2011, dated 2015).

How the values were obtained:
murine calvaria bone = assay: Anabolic assay using murine calvaria, histology (Study II); assay type: cell-based, mouse; conditions: calvaria of 4 day old pups, 5-20 μM, day 4 and day 7, 10× microscopy
Description: To investigate the biological effects on bone of the compounds from the PCR assays a number of assays were performed using murine calvaria bone as follows. Following procedures similar to those outlined above in Study I, murine calvaria bone was removed from 4 day old pups form CD-1 time pregnant mice from Harlan (15 day gestation at time of arrival). The pups were decapitated with scissors after dipping the pups in 95% ethanol. The scalp was then removed. The heads were placed in a Petri dish with BGJ medium. The calvaria bones were cut using curved scissors to make a cut along the suture of the calvaria bone and the two parts were carefully removed from the brain. The calvaria were trimmed avoiding the suture area. The collected tissue was placed into media (3 bones per group) including BGJ+L-Glutamine with 1% Pen/Strep and 1% BSA. The dish including the bones was placed into a 37° C. and 5% CO2 incubator.
The selected compounds were prepared in a solution of dimethyl sulfoxide (DMSO) to form stock solutions of each compound, with the exception of terfenadine, which was prepared in ethanol. Specifically, a 10 mM stock solution was prepared for PS1, a 25 mM stock solution was prepared for carebastine and a 50 mM stock solution was prepared for ebastine, #6 terfenadine, fexofenadine and astemizole. […]

BMP-2 [1] = assay: Study II real time PCR, BMP-2 up-regulation in mesenchymal stem cells; assay type: cell-based, human; conditions: hMSC, 24 hour, 2.5, 5 and 10 μM
Description: The testing procedure follows.
Cells based assays are done using 6 wells tissue culture plates, seeded with human mesenchymal stem cells (MSC) from Lonza, culture at 80% density. After seeding cells are treated with selected compounds at 10 μM, 5 μM and 2.5 μM for a 24 hour period, mRNA is collected using Qiagen kit RNAeasy kit and cDNA is prepared with same Qiagen kit, RT-PCR is done using kit from SABiosciences to measure gene expression for BMP2, 4 and 7 and run in Applied Biosystems Step One Plus. The protocol for mRNA isolation is described below.
Human mesenchymal stem cell growth medium passage 3 plated in a 6 well plate at 2.5×10^5 cells/well in hMSC Basal Medium+BulletKit (50 ml Growth Supplement, 10 ml L-Glutamine and 0.5 ml Gentamicin Sulfate Amphotericin-B) for 24 hrs. The compounds to be tested were added and after 24 hrs the media was aspirated, rinsed well once with PBS, and aspirated again. 350 ul of Lysis Buffer was added and the cells were stored at −20° C.
The lysate was homogenized by pipetting the lysate directly into a QIA shredder spin column placed in a 2-mL collection tube, and centrifuge for 2 min at full speed. 70% ethanol was added (1 vol. or […]) to the homogenized lysate (now at the bottom of the collection tube), and mixed well by pipetting. Up to 700 μL of the sample was transferred, including any precipitate that may have formed, to an RNeasy spin column placed in a 2-mL collection tube. This was centrifuged for 15 seconds at full speed. 700 μL of Buffer RW1 was added to the RNeasy spin column. This was centrifuged for 15 seconds at full speed to wash the spin column membrane.
500 μL of Buffer RPE was added to the RNeasy spin column and centrifuged for 15 seconds at full speed. The flow through was discarded. 500 μL of Buffer RPE was added to the RNeasy spin column and centrifuged for 2 minutes at full speed to wash the spin column membrane. The RNeasy spin column was removed from the collection tube and the flow-through was discarded.
The RNeasy spin column was placed in a new 2-mL collection tube and centrifuged for 1 minute at full speed. The RNeasy spin column was removed from the collection tube, and the flow-through was discarded. The RNeasy spin column was placed in a new 1.5-mL collection tube. 30-50 μL of RNase-free water was added directly to the spin column membrane and this was centrifuged for 1 minute at full speed to elute the RNA.

BMP2 = assay: Quantitative PCR (TaqMan, ΔΔCt) of BMP2 in human mesenchymal stem cells; assay type: cell-based; conditions: Homo sapiens, Mesenchymal stem cells; BMP2 mRNA, hMSC, 10 μM, vs untreated, 18S reference; positive control compounds (Table 1); read-out: q-PCR Fold increase
Description: Human mesenchymal stem cells (LONZA, Catalog PT2501) were maintained in Mesenchymal stem cells basal media (MSCBM CAT#PT-3238). Early passage cells were plated in triplicate at 2×10^4 cells/cm^2 using six well tissue culture plates and grown in humidified 5% CO2 at 37° C. for 24 hours. Spent media was replaced by assay media of drugs to be tested in same media as above at 10 μM final concentration. Untreated cells were used as the control group. Total RNA were prepared using either TRI Reagent (Ambion, Cat. 9738), for subsequent TaqMan gene expression qPCR of BMP2. RNA concentration and integrity was assessed by absorbance 260/280 and electrophoresis in 1% Agarose with formaldehyde loading dye. For TaqMan gene expression, cDNA was synthesized from 2 μg of total RNA using the High Capacity cDNA Reverse Transcription Kit (Applied Biosystems, Cat. 4368814). The resulting cDNA were diluted 1:100 for TaqMan and amplified by real-time quantitative PCR. Gene-specific fluorescent labeled TaqMan primers for FAM-BMP2 (Applied Biosystems, Hs00154192.m1) and TaqMan reference VIC-18S ribosomal RNA (Applied Biosystems, 4310893E) were used to target gene of interest. A cocktail of universal master mix (Applied Biosystems, 4369016) were prepared individually for both set of primers which contained Taq Polymerase, dNTPs, and buffer. Template cDNA's were added separately to respective individual wells in triplicate samples. The PCR were performed on StepOne Plus Real Time System instrument (Applied Biosystems). The amplification program consisted of 1 cycle of 95° C. with 10 minute hold (hot start) followed by 50 cycles of 95° C. with 15 second annealing hold and 1 minute 60° C. specified acquisition hold. The Ct value of endogenous reference gene (i.e. 18 s) was used to control for input RNA and then used to normalize target gene (i.e. BMP2) tested from the same cDNA sample to calculate the Δ Ct, and then calibrated to an internal reference sample. Change in gene expression was determined by the expression ΔΔCt relative method.
18 compounds were confirmed positive by the more stringent qPCR techniques. […] Included in the tables is the target or common medical use for each compounds.

BMP-2 [2] = assay: Real time PCR of BMP-2 gene expression in human MSC (Cells-to-Ct); assay type: cell-based; conditions: BMP-2 mRNA, hMSC, 5-10 μM, 24 hours, vs untreated; positive control compounds (Table 1)
Description: Early passage human mesenchymal stem cells (MSC) were thawed from one frozen cryo-vial and seeded into two T-75 tissue culture flasks and incubated at 37° C. for 48 hours in Alpha MEM with 10% FBS. After three days and one re-feeding, the cells were trypsinized and re-suspended in pre-warmed media at 5×10^4 cells/mL to provide 5,000 cells per well in a 96 well plate and incubated overnight at 37° C. in 5% CO2.
Each well was washed in cold PBS, lysed at room temperature for five minutes, and stop reagent added to each well to stop the lysis reaction. The final lysate was kept cold at 4° C. and used immediately as the RNA template for the reverse transcription cDNA synthesis following the TAQMAN GENE EXPRESSION CELLS TO CT KIT instructions.
The cDNA synthesis was prepared on a separate sterile 96-well PCR plate and performed on the Step One Plus Real Time PCR System instrument (Applied Biosystems) with the programming set at 37° C. for 60 minutes and an inactivation hold of 95° C. for five minutes. The final cDNA reaction was kept cold and used as the template for the TAQMAN GENE Real-Time PCR step following the recommended instructions for TAQMAN GENE EXPRESSION CELLS TO CT KIT assay. […] Template cDNA's were added separately to respective individual wells in replicate samples.
The PCR was performed on the STEPONEPLUS Real-Time System instrument (Applied Biosystems). The amplification program consisted of 1 cycle of 95° C. with 10 minute hold (hot start) and followed by 50 cycles of 95° C. with 15-second annealing hold and 1-minute 60° C. specified acquisition hold.

C3H10T1/2 cells = assay: Visual observation of morphological differentiation of C3H10T1/2 MSC; assay type: cell-based, mouse; conditions: enhanced medium withdrawn before addition
Description: The C3H10T1/2 cells were grown in an enhanced growth medium of BGjb (Irvine Scientific, Santa Ana, Calif.).

BMP-2 [3] = assay: BMP-2 fold change of JHU library compounds, confirmed by qPCR; assay type: cell-based, human; conditions: non-treated = 1.00

Row | SMILES | activity in bone calvaria assay / effect on BMP-2 gene expression, qualitative histology (murine calvaria bone) | fold change (PCR) (BMP-2 [1]) [fold] | fold induction at 10 µM (BMP2) | RT PCR Fold increase (BMP-2 [2]) [fold] | morphological changes by visual observation (C3H10T1/2 cells) | fold induction at 10 µM (BMP-2 [3]; Homo sapiens, read-out: Fold change (BMP-2), control compounds at 10 μM) | Fold change (BMP-2) (BMP-2 [3]; JHU library compounds) [fold]
1 | CC(C)(C(=O)O)c1ccc(C(=O)CCCN2CCC(OC(c3ccccc3)c3ccccc3)CC2)cc1 [Carebastine] | relatively active | ≤ 1 |  |  |  |  | 
2 | CC[C@H](C)C(=O)O[C@H]1C[C@@H](C)C=C2C=C[C@H](C)[C@H](CC[C@@H]3C[C@@H](O)CC(=O)O3)[C@H]21 [Lovastatin] |  |  | 10.7 | 59.9 | generated more elongated looking cells with slowed cell proliferation | 18 | 182.00
